# Reference: patent publication US20150344485A1, “BICYCLIC PYRIMIDONE COMPOUNDS AS INHIBITORS OF LP-PLA2” (GLAXOSMITHKLINE INTELLECTUAL PROPERTY DEVELOPMENT LIMITED, priority 2013, published 2015)
# Read-outs that look alike come from different tables or passages of the source.
# How the values were obtained:
# [1] = biological target: T1, recombinant human Lp-PLA2 (Homo sapiens, UniProt Q13093); test: Recombinant human Lp-PLA2 assay (rhLp-PLA2, PED6 assay); format: biochemical
# T1 sequence (Q13093 22-441): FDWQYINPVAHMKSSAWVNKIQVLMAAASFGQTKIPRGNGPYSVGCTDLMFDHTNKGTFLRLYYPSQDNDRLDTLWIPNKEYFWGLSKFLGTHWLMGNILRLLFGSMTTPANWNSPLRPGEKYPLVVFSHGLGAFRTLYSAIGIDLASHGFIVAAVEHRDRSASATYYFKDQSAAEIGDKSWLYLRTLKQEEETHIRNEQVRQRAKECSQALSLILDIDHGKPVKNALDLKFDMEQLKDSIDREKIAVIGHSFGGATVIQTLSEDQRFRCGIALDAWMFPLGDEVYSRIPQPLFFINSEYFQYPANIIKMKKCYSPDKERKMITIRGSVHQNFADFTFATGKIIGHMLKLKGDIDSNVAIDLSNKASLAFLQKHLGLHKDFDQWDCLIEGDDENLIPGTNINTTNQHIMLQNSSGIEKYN
# Description: (1) Recombinant Human Lp-PLA2 Assay (rhLp-PLA2) (Also Referred to as “PED6” Assay)
# N-((6-(2,4-dinitrophenyl)amino)-hexanoyl)-2-(4,4-difluoro-5,7-dimethyl-4-bora-3a,4a-diaza-s-indacene-3-pentanoyl)-1-hexadecanoyl-sn-glycero-3-phosphoethanolamine, triethylammonium salt (PED6) is a commercially available fluorescently-labeled phospholipid, which is commercially available from Invitrogene and Molecular Probes. There is a quenching para-nitro phenyl (PNP) group in the sn3 position and a Bodipy fluorescein (FL) group in the sn2 position. Upon cleavage with Lp-PLA2, the Bodipy FL group is liberated and then may result in an increase in fluorescence. Inhibitors of Lp-PLA2 therefore prevent this cleavage and no fluorescent increase is observed.
# The PED6 assay was run as an unquenched 10 μL assay. The source plate containing the compounds to be tested was prepared by making 1:3 (by volume) serial dilution of the compounds within DMSO on 384-well microplate. Then, 0.01 μL of the compounds on compound source plate were transferred into 384 well Greiner 784076 (black) plates using ECHO liquid dispenser. 5 μL of recombinant human Lp-PLA2 enzyme (4 nM (or 110 pM) rhLp-PLA2 in assay buffer of 50 mM HEPES, pH 7.4, 150 mM NaCl, 1 mM CHAPS) was added to each well of the plate. Plates were centrifuged for 10 sec at 500 rpm. After 30 minutes preincubation, 5 μL of substrate (4 μM (or 5 μM) PED6 [from 5 mM DMSO stock] in assay buffer of 50 mM HEPES, pH 7.4, 150 mM NaCl, 1 mM CHAPS) was added to 384 well Greiner 784076 (black) plates. Plates were centrifuged for 10 sec at 500 rpm. The plate was covered to protect it from light and incubated for 20 min at room temperature. The plates were read for fluorescence intensity at ex: 480/em: 540 using ViewLux microplate imager for Envision spectrofluroimeters. pIC50 data, curve and QC analysis was conducted by using XL fit module in Excel.
# Lp-PLA2 in human plasma = biological target: T2, Lp-PLA2 in human plasma (Homo sapiens, UniProt Q13093); test: Lp-PLA2 human plasma assay (Thio-PAF assay); format: biochemical; details: pooled human plasma; read-out: pIC50 values in the thio-PAF assay (converted)
# T2 construct: from tissue; host or cells: pooled human plasma
# T2 sequence (Q13093 22-441): T1 sequence (Q13093 22-441)
# Summary of the method: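 Pooled human plasma preincubated 30 min with compound, then 2-thio-PAF substrate added with CPM and NEM in 50 mM HEPES pH 7.4, 150 mM NaCl, 1 mM CHAPS. Quenched with TFA after 2 min, incubated 40 min at room temperature, and read by fluorescence at ex 380/em 485 nm. Values given as pIC50.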
# [2] = read-out: pIC50 values in the recombinant human Lp-PLA2 assay (converted)
# [3] = read-out: rhLp-PLA2 (PED6 assay) (pIC50) (converted)
Compound,"IC50 [1, 2]",IC50 (Lp-PLA2 in human plasma),"IC50 [1, 3]"
"C[C@H]1CCn2c(cc(OCc3ccc(Oc4ccc(C(F)(F)F)cc4)c(F)c3)nc2=O)N1C [E93, (S)-8-((3-fluoro-4-(4-(trifluoromethyl)phenoxy)benzyl)oxy)-1,2-dimethyl-3,4-dihydro-1H-pyrimido[1,6-a]pyrimidin-6(2H)-one]",≤ 1 nM,≤ 10 nM,–
"C[C@H]1CCn2c(cc(OCc3cc(F)c(Oc4ccc(F)cc4)c(F)c3)nc2=O)N1C [E94, (S)-8-((3,5-difluoro-4-(4-fluorophenoxy)benzyl)oxy)-1,2-dimethyl-3,4-dihydro-1H-pyrimido[1,6-a]pyrimidin-6(2H)-one]",≤ 1 nM,≤ 100 nM,–
"C[C@H]1CCn2c(cc(OCc3cc(F)c(Oc4ccc(Cl)cc4)c(F)c3)nc2=O)N1C [E95, (S)-8-((4-(4-chlorophenoxy)-3,5-difluorobenzyl)oxy)-1,2-dimethyl-3,4-dihydro-1H-pyrimido[1,6-a]pyrimidin-6(2H)-one]",≤ 1 nM,≤ 100 nM,–
C[C@H]1CCn2c(cc(OCc3cc(F)c(Oc4cccc(F)c4)c(F)c3)nc2=O)N1C [E96],≤ 1 nM,≤ 100 nM,–
"C[C@@H]1CCn2c(cc(OCc3cc(F)c(Oc4cnc(C(F)(F)F)nc4)c(F)c3)nc2=O)N1C [E97, (R)-8-((3,5-difluoro-4-((2-(trifluoromethyl)pyrimidin-5-yl)oxy)benzyl)oxy)-1,2-dimethyl-3,4-dihydro-1H-pyrimido[1,6-a]pyrimidin-6(2H)-one]",≤ 1 nM,≤ 10 nM,0.1 nM
"C[C@H]1CCn2c(cc(OCc3ccc(Oc4cccc(C(F)(F)F)c4)c(C#N)c3)nc2=O)N1C [E98, (S)-5-(((1,2-dimethyl-6-oxo-2,3,4,6-tetrahydro-1H-pyrimido[1,6-a]pyrimidin-8-yl)oxy)methyl)-2-(3-(trifluoromethyl)phenoxy)benzonitrile]",≤ 1 nM,≤ 10 nM,–
"C[C@H]1CCn2c(cc(OCc3ccc(Oc4ccc(F)c(F)c4)c(C#N)c3)nc2=O)N1C [E99, (S)-2-(3,4-difluorophenoxy)-5-(((1,2-dimethyl-6-oxo-2,3,4,6-tetrahydro-1H-pyrimido[1,6-a]pyrimidin-8-yl)oxy)methyl)benzonitrile]",≤ 1 nM,≤ 10 nM,–
"C[C@@H]1CCn2c(cc(OCc3cc(F)c(Oc4ccc(F)c(F)c4)c(F)c3)nc2=O)N1C [E101, (R)-8-((4-(3,4-difluorophenoxy)-3,5-difluorobenzyl)oxy)-1,2-dimethyl-3,4-dihydro-1H-pyrimido[1,6-a]pyrimidin-6(2H)-one]",≤ 1 nM,≤ 10 nM,–
"C[C@@H]1CCn2c(cc(OCc3ccc(Oc4cccc(F)c4)c(C#N)c3)nc2=O)N1C [E102, (R)-5-(((1,2-dimethyl-6-oxo-2,3,4,6-tetrahydro-1H-pyrimido[1,6-a]pyrimidin-8-yl)oxy)methyl)-2-(3-fluorophenoxy)benzonitrile]",≤ 1 nM,≤ 10 nM,–
"C[C@@H]1CCn2c(cc(OCc3cc(F)c(Oc4cccc(F)c4)c(F)c3)nc2=O)N1C [E103, (R)-8-((3,5-difluoro-4-(3-fluorophenoxy)benzyl)oxy)-1,2-dimethyl-3,4-dihydro-1H-pyrimido[1,6-a]pyrimidin-6(2H)-one]",≤ 1 nM,≤ 100 nM,–
"C[C@H]1CCn2c(cc(OCc3cc(F)c(Oc4cnc(C(F)(F)F)nc4)c(F)c3)nc2=O)N1C [E104, (S)-8-((3,5-difluoro-4-((2-(trifluoromethyl)pyrimidin-5-yl)oxy)benzyl)oxy)-1,2-dimethyl-3,4-dihydro-1H-pyrimido[1,6-a]pyrimidin-6(2H)-one]",≤ 1 nM,≤ 100 nM,–
"C[C@H]1CCn2c(cc(OCc3ccc(Oc4ccc(C(F)(F)F)c(F)c4)cc3)nc2=O)N1C [E105, (S)-8-((4-(3-fluoro-4-(trifluoromethyl)phenoxy)benzyl)oxy)-1,2-dimethyl-3,4-dihydro-1H-pyrimido[1,6-a]pyrimidin-6(2H)-one]",≤ 1 nM,≤ 100 nM,–
"C[C@H]1CCn2c(cc(OCc3cc(F)c(Oc4ccc(F)c(Cl)c4)c(F)c3)nc2=O)N1C [E106, (S)-8-((4-(3-chloro-4-fluorophenoxy)-3,5-difluorobenzyl)oxy)-1,2-dimethyl-3,4-dihydro-1H-pyrimido[1,6-a]pyrimidin-6(2H)-one]",≤ 1 nM,≤ 100 nM,–
"C[C@H]1CCn2c(cc(OCc3ccc(Oc4cnc(C(F)(F)F)nc4)c(F)c3)nc2=O)N1C [E107, (S)-8-((3-fluoro-4-((2-(trifluoromethyl)pyrimidin-5-yl)oxy)benzyl)oxy)-1,2-dimethyl-3,4-dihydro-1H-pyrimido[1,6-a]pyrimidin-6(2H)-one]",≤ 1 nM,≤ 100 nM,0.398 nM
"C[C@@H]1CCn2c(cc(OCc3ccc(Oc4ccc(C(F)(F)F)c(F)c4)cc3)nc2=O)N1C [E108, (R)-8-((4-(3-fluoro-4-(trifluoromethyl)phenoxy)benzyl)oxy)-1,2-dimethyl-3,4-dihydro-1H-pyrimido[1,6-a]pyrimidin-6(2H)-one]",≤ 1 nM,≤ 100 nM,–
C[C@@H]1CCn2c(cc(OCc3cc(F)c(Oc4ccc(F)c(Cl)c4)c(F)c3)nc2=O)N1C [E109],≤ 1 nM,≤ 10 nM,–

# Results, then the molecule that gave them:
"IC50 [1, 2]",IC50 (Lp-PLA2 in human plasma),"IC50 [1, 3]",Compound
≤ 1 nM,≤ 100 nM,0.631 nM,"C[C@@H]1CCn2c(cc(OCc3ccc(Oc4cnc(C(F)(F)F)nc4)c(F)c3)nc2=O)N1C [E110, (R)-8-((3-fluoro-4-((2-(trifluoromethyl)pyrimidin-5-yl)oxy)benzyl)oxy)-1,2-dimethyl-3,4-dihydro-1H-pyrimido[1,6-a]pyrimidin-6(2H)-one]"
≤ 1 nM,≤ 10 nM,–,"CN1c2cc(OCc3ccc(Oc4ccc(F)c(F)c4)c(C#N)c3)nc(=O)n2CCC1(C)C [E111, 2-(3,4-difluorophenoxy)-5-(((1,2,2-trimethyl-6-oxo-2,3,4,6-tetrahydro-1H-pyrimido[1,6-a]pyrimidin-8-yl)oxy)methyl)benzonitrile]"
≤ 1 nM,≤ 10 nM,–,"CN1c2cc(OCc3ccc(Oc4ccc(C(F)(F)F)nc4)c(C#N)c3)nc(=O)n2CCC1(C)C [E112, 2-((6-(trifluoromethyl)pyridin-3-yl)oxy)-5-(((1,2,2-trimethyl-6-oxo-2,3,4,6-tetrahydro-1H-pyrimido[1,6-a]pyrimidin-8-yl)oxy)methyl)benzonitrile]"
≤ 1 nM,≤ 100 nM,–,"C[C@H]1CCn2c(cc(OCc3ccc(Oc4ccc(C(F)(F)F)nc4)c(C#N)c3)nc2=O)N1C [E113, (S)-5-(((1,2-dimethyl-6-oxo-2,3,4,6-tetrahydro-1H-pyrimido[1,6-a]pyrimidin-8-yl)oxy)methyl)-2-((6-(trifluoromethyl)pyridin-3-yl)oxy)benzonitrile]"
≤ 1 nM,≤ 10 nM,–,"C[C@@H]1CCn2c(cc(OCc3ccc(Oc4ccc(F)c(F)c4)c(C#N)c3)nc2=O)N1C [E114, (R)-2-(3,4-difluorophenoxy)-5-(((1,2-dimethyl-6-oxo-2,3,4,6-tetrahydro-1H-pyrimido[1,6-a]pyrimidin-8-yl)oxy)methyl)benzonitrile]"
≤ 1 nM,≤ 10 nM,–,"C[C@@H]1CCn2c(cc(OCc3ccc(Oc4ccc(C(F)(F)F)nc4)c(C#N)c3)nc2=O)N1C [E115, (R)-5-(((1,2-dimethyl-6-oxo-2,3,4,6-tetrahydro-1H-pyrimido[1,6-a]pyrimidin-8-yl)oxy)methyl)-2-((6-(trifluoromethyl)pyridin-3-yl)oxy)benzonitrile]"
≤ 1 nM,≤ 10 nM,–,"CN1c2cc(OCc3ccc(Oc4ccc(F)c(C(F)(F)F)c4)c(C#N)c3)nc(=O)n2CCC1(C)C [E116, 2-(4-fluoro-3-(trifluoromethyl)phenoxy)-5-(((1,2,2-trimethyl-6-oxo-2,3,4,6-tetrahydro-1H-pyrimido[1,6-a]pyrimidin-8-yl)oxy)methyl)benzonitrile]"
